# Values quoted from earlier work, collected in the CATMoS acute toxicity set (Mansouri et al. 2021).
# Where “and” joins values, the source holds several entries; their conditions need not be identical. Equal entries are not always repeated.
# Assay: rat acute oral toxicity
# Settings: in vivo
row,SMILES,LD50
1,CCN(CC)C(C)C(=O)c1ccc(NS(C)(=O)=O)cc1 (centres undefined),2350 mg/kg
2,CCOC(C1=NCC(C)(C)CN1)c1cccc(F)c1 (centres undefined),750 mg/kg
3,CN(c1ccc(F)cc1F)c1c([N+](=O)[O-])cc([N+](=O)[O-])cc1C(F)(F)F,250 mg/kg
4,Cc1c(F)c(F)c2nc(C(F)(F)F)[nH]c2c1F,3.94 mg/kg
5,Cc1c(Cl)c(Br)c(Br)c2[nH]c(C(F)(F)F)nc12,23 mg/kg
6,CC(=O)N(CCN(C)C)n1cc(-c2ccccc2)c2ccccc21,1100 mg/kg
7,CNCC1CCCCC1,1410 mg/kg
8,CCCN(CCC)CCCCCCCCNC(=O)Oc1ccc2c(c1)[C@]1(C)CCN(C)[C@@H]1N2C,18.3 mg/kg
9,CNC(C)CC1CCCC1 (centres undefined),169 mg/kg
10,CCCCCC(C)=O,1670 mg/kg
11,O=C(C1CCCCC1)N1CC(=O)N2CCc3ccccc3C2C1 (centres undefined),2840 mg/kg
12,O=C(O)CCc1nc2ccccc2[nH]1,1700 mg/kg
13,CC(C)CC(=O)OCCc1ccccc1,6220 mg/kg
14,CC(C)CCCCCCCCCCOC(=O)c1ccccc1C(=O)OCCCCCCCCCCC(C)C,31400 mg/kg
15,OCCNCC(O)CNCCO,7200 mg/kg
16,CC(C)(O)CC(C)(O)c1ccc(Cl)cc1 (centres undefined),1140 mg/kg
17,CCC1OCC(=NOC(=O)NC)S1 (centres undefined),60 mg/kg
18,CNC[C@H](O)c1ccc(O)c(O)c1,30 mg/kg and 24 mg/kg
19,CCC(C)C(CC)C(N)=O (centres undefined),760 mg/kg
20,CC(N)=[Se],10 mg/kg
21,N#CC=Cc1ccccc1,4150 mg/kg
22,CCCCCCCCCCCC(=O)OCC(O)CO (centres undefined),52900 mg/kg
23,CC(C)(C)CC1(C)CO1 (centres undefined),4920 mg/kg
24,CCCCCCCC=O,5630 mg/kg
25,OCCOCCOCCN1CCN(C(c2ccccc2)c2ccc(Cl)cc2)CC1 (centres undefined),920 mg/kg

row,SMILES,LD50
1,COCC(O)Cn1ccnc1[N+](=O)[O-] (centres undefined),2130 mg/kg
2,COC(CNCc1ccccc1)c1cccc(C(F)(F)F)c1 (centres undefined),1720 mg/kg
3,COc1cc2[nH]c3c(c2cc1OC)CCN1CC2C(C)OC=C(C(=O)OCCN(C)C)C2CC31 (centres undefined),2350 mg/kg
4,COCCN(C(=O)CCl)c1c(C)cccc1C,1600 mg/kg
5,CCc1nn(-c2ccc(F)cc2)c2c(=O)[nH]ccc12,375 mg/kg
6,Cc1ccnc(C)c1,200 mg/kg
7,CN1c2ccccc2Sc2ccc(CC(=O)O)cc21,495 mg/kg
8,CC(C)(C)c1cc([N+](=O)[O-])cc([N+](=O)[O-])c1O,26 mg/kg
9,FC(F)(F)c1cccc(OCC2CNC(=S)O2)c1 (centres undefined),524 mg/kg
10,CN(CCCn1cnc2c1c(=O)n(C)c(=O)n2C)c1ccccc1,1640 mg/kg
11,CCCCC(CC)COCCC(=O)O (centres undefined),3730 mg/kg
12,COP(=O)(Oc1ccccc1)OC(Br)C(Cl)(Cl)Br (centres undefined),500 mg/kg
13,C#CCOc1ccc(N)cc1C(=O)NCCCC,864 mg/kg
14,CCOP(=S)(OCC)SC1CCSc2ccc(Cl)cc21 (centres undefined),63 mg/kg
15,N#C[C@H]1O[C@@H]1C#N,250 mg/kg
16,CC(=O)C=CC1=C(C)CCCC1(C)C,4590 mg/kg
17,C=CC(=O)N(CC)CC,1420 mg/kg
18,CCN1C[C@]2(COC)[C@H](O)C[C@H](OC)[C@]34C1[C@H]([C@H](OC)[C@H]23)[C@]1(OC(C)=O)[C@H]2[C@@H](OC(=O)c3ccccc3)[C@](O)(C[C@H]24)[C@@H](OC)[C@@H]1O,5.97 mg/kg
19,CCCC1C2C=CC(C2)C1C=O (centres undefined),4600 mg/kg
20,CC(C)(c1cc(Cl)c(O)c(Cl)c1)c1cc(Cl)c(O)c(Cl)c1,7430 mg/kg
21,CCCCN1CCCC1=Nc1ccc(Cl)c(Cl)c1,3050 mg/kg
22,CN(C)C(=O)Nc1ccc(SC(F)(F)Cl)c(Cl)c1,336 mg/kg
23,c1cc2c(cc1CCC(CCc1ccc3c(c1)OCO3)N1CCCC1)OCO2,565 mg/kg
24,CC1CO1 (centres undefined),380 mg/kg
25,OC[C@@H](O)[C@@H](O[C@@H]1O[C@H](CO)[C@H](O)[C@H](O)[C@H]1O)[C@H](O)[C@@H](O)CO,30000 mg/kg and 27500 mg/kg

row,SMILES,LD50
1,C=CC1(C)OC(=O)N(c2cc(Cl)cc(Cl)c2)C1=O (centres undefined),10000 mg/kg
2,CCCCCCCc1ccc(O)cc1O,1300 mg/kg
3,CCC1CN2CCC1CC2C(O)c1ccnc2ccc(OC)cc12 (centres undefined),369 mg/kg
4,COc1ccc2c(c1)OC(C)(C)C(c1ccccc1)=C2c1ccc(OCCN)cc1,1500 mg/kg
5,CC(C)NNC(=O)COc1ccc(Cl)cc1,550 mg/kg
6,O=[N+]([O-])c1cnc(Cl)c([N+](=O)[O-])c1,50 mg/kg
7,CCCCCCCCOC(C[n+]1ccccc1)c1ccc(C2CCCCC2)cc1 (centres undefined),250 mg/kg
8,CS(=O)(=O)c1ccccc1,1470 mg/kg
9,CCNC(=O)C(C)OC(=O)Nc1ccccc1 (centres undefined),11000 mg/kg
10,CCCOc1ccc(Cl)cc1C(CN(C)C)C(C)CC (centres undefined),561 mg/kg
11,C1CN(SSSSN2CCOCC2)CCO1,4800 mg/kg
12,CCCCOc1ccc(OCC(=O)N(CCN(CC)CC)c2cc(OCC)ccc2OCC)cc1,2400 mg/kg
13,CC1C2Cc3ccc(O)cc3C1(C)CCN2CCc1ccccc1 (centres undefined),90 mg/kg
14,CCn1cc(C(=O)O)c(=O)c2cc3c(cc21)OCO3,525 mg/kg
15,Clc1cccc(C(Cl)(Cl)Cl)n1,940 mg/kg
16,CCc1ccc(C)[n+](C(C)CCC(C)(C)CC(C)(C)C)c1 (centres undefined),540 mg/kg
17,O=C(O)C=CC(=O)O,8000 mg/kg and 3380 mg/kg
18,CC(C)=CC(N)=O,3560 mg/kg
19,Nc1ccc2c(c1)[nH]c1ccccc12,964 mg/kg
20,O=c1occo1,300 mg/kg
21,O=C1CCCN1c1cccc2cccnc12,1650 mg/kg
22,CN(C)C(=O)Nc1ccc(Cl)cc1,1050 mg/kg
23,OCCNCCc1ccccc1,1870 mg/kg
24,Cc1cc(-c2ccc(/N=N/c3c(N)c(C)cc(S(=O)(=O)O)c3N)c(C)c2)ccc1/N=N/c1ccc(O)c(C(=O)O)c1,6830 mg/kg
25,COc1c(O)c(Cl)c(Cl)c(Cl)c1Cl,1690 mg/kg

row,SMILES,LD50
1,ClCC1(CCl)COC1,600 mg/kg
2,CC(=O)OCN(C)N=O,130 mg/kg
3,CC(C)CCCC(C)N (centres undefined),538 mg/kg
4,COCCNC(=O)CSP(=S)(OC)OC,420 mg/kg
5,Cn1c(=N)oc2ccc(Cl)cc21,1000 mg/kg
6,O=C(O)c1c(Cl)ccc(Cl)c1O,1560 mg/kg
7,CCC(C)(C)OC(=O)Nc1ccco1,190 mg/kg
8,CC(=O)Nc1ccc(OC(=O)c2ccccc2OC(C)=O)cc1,3500 mg/kg
9,C1CCN2C[C@@H]3C[C@@H](C[C@H]2C1)N1CCCC[C@@H]31,960 mg/kg
10,COC(F)(F)C(Cl)Cl,3600 mg/kg
11,N#Cc1ccc([N+](=O)[O-])cc1,30 mg/kg
12,Cc1ccc(S(=O)(=O)NCl)cc1,935 mg/kg
13,C#CC(C)(C)N,1470 mg/kg
14,Cc1nn(-c2cc(NS(C)(=O)=O)c(Cl)cc2Cl)c(=O)n1C(F)F,2860 mg/kg
15,CCCCOc1ccccc1NC(C)=O,2900 mg/kg
16,CCS(=O)CC,5650 mg/kg
17,Clc1cccc2ccccc12,2200 mg/kg and 1540 mg/kg
18,Cc1ccc(NC(=O)CF)cc1,7 mg/kg
19,CC1NC(=S)NC1=O (centres undefined),1050 mg/kg
20,Cc1nc(C)c(C)nc1C,1910 mg/kg
21,CC(=O)OC(c1ccccc1)C(Cl)(Cl)Cl (centres undefined),6800 mg/kg
22,CS(=O)(=O)c1ccc(O)cc1,3160 mg/kg
23,O=C(CN1CCNCC1)NC1CCCCC1,3900 mg/kg
24,CP(C)(=O)CN1C(=O)CN=C(c2ccccc2)c2cc(Cl)ccc21,3110 mg/kg
25,O=S(=O)(O)c1ccccc1,2050 mg/kg

row,SMILES,LD50
1,CCN(CCN(C)C)c1ccccc1,1150 mg/kg
2,CS(=O)(=O)c1ccc2nc(C(F)(F)F)[nH]c2c1,69 mg/kg
3,O=[N+]([O-])c1ccc(Sc2ccc([N+](=O)[O-])cc2)cc1,1490 mg/kg
4,CC(C)=NNC(N)=S,48.5 mg/kg
5,O=C(Nc1nc(-c2ccccc2)cs1)OCC(Cl)(Cl)Cl,550 mg/kg
6,Fc1ccc2nc(C(F)(F)F)[nH]c2c1,16.6 mg/kg
7,COC(=O)CC(SP(=O)(OC)OC)C(=O)OC (centres undefined),103 mg/kg
8,COc1c(OP(=S)(Oc2cnn(C)c(=O)c2OC)OC(C)C)cnn(C)c1=O,100 mg/kg
9,Cc1cc(Cl)ccc1OCC(=O)OCCCCCC(C)C,700 mg/kg
10,COP(=O)(OC)C(OC(=O)CCl)C(Cl)(Cl)Cl (centres undefined),344 mg/kg
11,O=C(CN1CCOCC1)N/N=C/c1ccc([N+](=O)[O-])o1,420 mg/kg
12,CN1CCN(C(=O)N/N=C/c2ccc([N+](=O)[O-])o2)CC1,750 mg/kg
13,CNC(=O)c1cc(OC)n(-c2cccc(Cl)c2)n1,1540 mg/kg
14,COc1ccc2c(c1)c(CC(=O)OCC(=O)O)c(C)n2C(=O)c1ccc(Cl)cc1,24.2 mg/kg
15,Cc1cc(C)c(Cc2cc(C)c(C)cc2C)cc1C,4500 mg/kg
16,CCC(C(=O)c1ccc2[nH]c(=O)ccc2c1)N1CCN(c2cccc(Cl)c2)CC1 (centres undefined),500 mg/kg
17,C=C[Si](OCCOC)(OCCOC)OCCOC,2960 mg/kg
18,CC(C)(C)c1cc(C(=O)O)cc(C(C)(C)C)c1O,1410 mg/kg
19,C=C(OP(=O)(OC)OC)c1ccc(Cl)cc1Cl,2350 mg/kg
20,Cc1c(O)cc([N+](=O)[O-])cc1[N+](=O)[O-],25 mg/kg
21,CCCCCCCCOS(=O)(=O)O,3200 mg/kg
22,COCCN1C=CC(=C2C(=O)c3ccccc3C2=O)C=C1,350 mg/kg
23,O=C(Cl)C(Cl)Cl,2460 mg/kg
24,Cc1c([N+](=O)[O-])cc(N)cc1[N+](=O)[O-],959 mg/kg
25,OC(c1ccccc1)C1CCCCC1 (centres undefined),9300 mg/kg

row,SMILES,LD50
1,NC1=C(Cl)C(=O)c2ccccc2C1=O,1360 mg/kg
2,CC(C)=CC1C(C(=O)OCc2cc3c(cc2Cl)OCO3)C1(C)C (centres undefined),15000 mg/kg
3,COP(=S)(OC)SC1CCSc2ccccc21 (centres undefined),5 mg/kg
4,O=P(OC=C(Cl)Cl)(OCCCl)OCCCl,25 mg/kg
5,CC(C)(C)c1cc(C=C(C#N)C#N)cc(C(C)(C)C)c1O,87 mg/kg
6,CC(C)OC(=O)C(C(=O)OC(C)C)=C1SCCS1,1190 mg/kg
7,CC(Cc1ccccc1)NCCn1cnc2c1c(=O)n(C)c(=O)n2C (centres undefined),100 mg/kg
8,CC(N)CN (centres undefined),2230 mg/kg
9,CC1Cc2cc(C(=O)CCc3ccccc3)ccc2O1 (centres undefined),2150 mg/kg
10,CCOC(=O)C=Cc1ccc(Cl)cc1,957 mg/kg
11,CCCN=C(C(OCC)c1ccccc1)N1CCCCCC1 (centres undefined),220 mg/kg
12,Cc1ccccc1OCC(O)CO (centres undefined),625 mg/kg
13,CCCCCCCCCCCC[N+](CCO)(CCO)Cc1ccccc1,750 mg/kg
14,CC(=O)Nc1ccc2c(c1)OCO2,1000 mg/kg
15,CCOC(=O)C(Cl)Cc1cc(-n2nc(C)n(C(F)F)c2=O)c(F)cc1Cl (centres undefined),5140 mg/kg
16,C=CCOC(Cn1ccnc1)c1ccc(Cl)cc1Cl (centres undefined),227 mg/kg
17,CN(C)CC1CCCCC1,1230 mg/kg
18,O=C(OC(=O)C(Cl)Cl)C(Cl)Cl,2820 mg/kg
19,CCCCCCCCCCCCCCCCCCN(C)C,200 mg/kg
20,CCOP(=S)(OCC)SCCl,7 mg/kg
21,COC(=N)N,3700 mg/kg
22,C[N+]1(CCN(C2CCCCC2)C2CCCCC2)CCCCC1,650 mg/kg
23,COP(N)(=S)Oc1cc(Cl)c(Cl)cc1Cl (centres undefined),700 mg/kg
24,C[C@@H](N)[C@@H](O)c1ccccc1,1490 mg/kg
